Source: PubChem BioAssay (NCI)
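Values below derive from 48-hour exposures of cells grown in 96-well plates, with endpoints linearly interpolated between the two concentrations bracketing the appropriate inhibition level. TGI: concentration producing complete growth inhibition.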

How the values were obtained:
Assay in all cases: DTP human tumour cell line panel, 48 h
786-0 renal = tested on: 786-0 renal
A498 renal = tested on: A498 renal
A549 NSCLC = tested on: A549 NSCLC
ACHN renal = tested on: ACHN renal
CAKI-1 renal = tested on: CAKI-1 renal
CCRF-CEM leukemia = tested on: CCRF-CEM leukemia
COLO 205 colon = tested on: COLO 205 colon
DLD-1 colon = tested on: DLD-1 colon
DMS 273 small cell lung = tested on: DMS 273 small cell lung
EKVX NSCLC = tested on: EKVX NSCLC
HCC-2998 colon = tested on: HCC-2998 colon
HCT-116 colon = tested on: HCT-116 colon
HL-60(TB) leukemia = tested on: HL-60(TB) leukemia
HOP-62 NSCLC = tested on: HOP-62 NSCLC
HOP-92 NSCLC = tested on: HOP-92 NSCLC
HT29 colon = tested on: HT29 colon
IGROV1 ovarian = tested on: IGROV1 ovarian
K-562 leukemia = tested on: K-562 leukemia
KM12 colon = tested on: KM12 colon
LOX IMVI melanoma = tested on: LOX IMVI melanoma
LXFL 529 NSCLC = tested on: LXFL 529 NSCLC
M14 melanoma = tested on: M14 melanoma
M19-MEL melanoma = tested on: M19-MEL melanoma
MALME-3M melanoma = tested on: MALME-3M melanoma
MOLT-4 leukemia = tested on: MOLT-4 leukemia
NCI-H226 lung = tested on: NCI-H226 lung
NCI-H23 lung = tested on: NCI-H23 lung
NCI-H460 lung = tested on: NCI-H460 lung
NCI-H522 lung = tested on: NCI-H522 lung
OVCAR-3 ovarian = tested on: OVCAR-3 ovarian
OVCAR-4 ovarian = tested on: OVCAR-4 ovarian
OVCAR-5 ovarian = tested on: OVCAR-5 ovarian
OVCAR-8 ovarian = tested on: OVCAR-8 ovarian
RPMI-8226 leukemia = tested on: RPMI-8226 leukemia
RXF 393 renal = tested on: RXF 393 renal
SF-268 CNS = tested on: SF-268 CNS
SF-295 CNS = tested on: SF-295 CNS
SF-539 CNS = tested on: SF-539 CNS
SK-MEL-2 melanoma = tested on: SK-MEL-2 melanoma
SK-MEL-28 melanoma = tested on: SK-MEL-28 melanoma
SK-MEL-5 melanoma = tested on: SK-MEL-5 melanoma
SK-OV-3 ovarian = tested on: SK-OV-3 ovarian
SN12C renal = tested on: SN12C renal
SNB-19 CNS = tested on: SNB-19 CNS
SNB-75 CNS = tested on: SNB-75 CNS
SNB-78 CNS = tested on: SNB-78 CNS
SR leukemia = tested on: SR leukemia
SW-620 colon = tested on: SW-620 colon
TK-10 renal = tested on: TK-10 renal
U251 CNS = tested on: U251 CNS
UACC-257 melanoma = tested on: UACC-257 melanoma
UACC-62 melanoma = tested on: UACC-62 melanoma
UO-31 renal = tested on: UO-31 renal
DMS 114 small cell lung = tested on: DMS 114 small cell lung
HCT-15 colon = tested on: HCT-15 colon
KM20L2 colon = tested on: KM20L2 colon

Compound: CC(=O)NC1=C(C)C(=O)c2c(nc3n2CCC3OC(=O)CCl)C1=O (centres undefined)
- TGI (786-0 renal): 21.6 µM
- TGI (A498 renal): 27.4 µM
- TGI (A549 NSCLC): 26 µM
- TGI (ACHN renal): 42.5 µM
- TGI (CAKI-1 renal): 35.2 µM
- TGI (CCRF-CEM leukemia): 4.52 µM
- TGI (COLO 205 colon): 34.7 µM
- TGI (DLD-1 colon): 29.7 µM
- TGI (DMS 273 small cell lung): 33.6 µM
- TGI (EKVX NSCLC): 20.6 µM
- TGI (HCC-2998 colon): 25.7 µM
- TGI (HCT-116 colon): 5.57 µM
- TGI (HL-60(TB) leukemia): 8.58 µM
- TGI (HOP-62 NSCLC): 31.6 µM
- TGI (HOP-92 NSCLC): 5.15 µM
- TGI (HT29 colon): 30.3 µM
- TGI (IGROV1 ovarian): 25.2 µM
- TGI (K-562 leukemia): 5.73 µM
- TGI (KM12 colon): 29.5 µM
- TGI (LOX IMVI melanoma): 16.8 µM
- TGI (LXFL 529 NSCLC): 5.12 µM
- TGI (M14 melanoma): 32.2 µM
- TGI (M19-MEL melanoma): 26.3 µM
- TGI (MALME-3M melanoma): 16.6 µM
- TGI (MOLT-4 leukemia): 4.48 µM
- TGI (NCI-H226 lung): 7.01 µM
- TGI (NCI-H23 lung): 26.1 µM
- TGI (NCI-H460 lung): 56.2 µM
- TGI (NCI-H522 lung): 11.9 µM
- TGI (OVCAR-3 ovarian): 3.68 µM
- TGI (OVCAR-4 ovarian): 4.19 µM
- TGI (OVCAR-5 ovarian): 25.5 µM
- TGI (OVCAR-8 ovarian): 16.6 µM
- TGI (RPMI-8226 leukemia): > 100 µM
- TGI (RXF 393 renal): 18.1 µM
- TGI (SF-268 CNS): 21.9 µM
- TGI (SF-295 CNS): 29.9 µM
- TGI (SF-539 CNS): 6.47 µM
- TGI (SK-MEL-2 melanoma): 10.2 µM
- TGI (SK-MEL-28 melanoma): 31.4 µM
- TGI (SK-MEL-5 melanoma): 25.4 µM
- TGI (SK-OV-3 ovarian): 37.9 µM
- TGI (SN12C renal): 24.1 µM
- TGI (SNB-19 CNS): 32.1 µM
- TGI (SNB-75 CNS): 30.1 µM
- TGI (SNB-78 CNS): 6.5 µM
- TGI (SR leukemia): > 100 µM
- TGI (SW-620 colon): 22.6 µM
- TGI (TK-10 renal): 43.1 µM
- TGI (U251 CNS): 11.8 µM
- TGI (UACC-257 melanoma): 25.5 µM
- TGI (UACC-62 melanoma): 6.33 µM
- TGI (UO-31 renal): 31.9 µM

Compound: CC(=O)NC1=C(C)C(=O)c2c(nc3n2CCC3OC(=O)c2ccccc2)C1=O (centres undefined)
- TGI (786-0 renal): 14.9 µM
- TGI (A498 renal): 25.3 µM
- TGI (A549 NSCLC): 3.1 µM
- TGI (ACHN renal): 8.72 µM
- TGI (CAKI-1 renal): 4.78 µM
- TGI (CCRF-CEM leukemia): 4.44 µM
- TGI (COLO 205 colon): 12.5 µM
- TGI (DLD-1 colon): 4.46 µM
- TGI (DMS 114 small cell lung): 2.54 µM
- TGI (DMS 273 small cell lung): 5.28 µM
- TGI (EKVX NSCLC): 3.01 µM
- TGI (HCC-2998 colon): 12.1 µM
- TGI (HCT-116 colon): 4.1 µM
- TGI (HL-60(TB) leukemia): 5.13 µM
- TGI (HOP-62 NSCLC): 5.56 µM
- TGI (HOP-92 NSCLC): 4.7 µM
- TGI (HT29 colon): 3.48 µM
- TGI (IGROV1 ovarian): 3.98 µM
- TGI (K-562 leukemia): 6.17 µM
- TGI (KM12 colon): 10.3 µM
- TGI (LOX IMVI melanoma): 2.96 µM
- TGI (LXFL 529 NSCLC): 2.9 µM
- TGI (M14 melanoma): 3.47 µM
- TGI (M19-MEL melanoma): 3.57 µM
- TGI (MALME-3M melanoma): 3.38 µM
- TGI (MOLT-4 leukemia): 5.57 µM
- TGI (NCI-H226 lung): 4.69 µM
- TGI (NCI-H23 lung): 3.55 µM
- TGI (NCI-H460 lung): 5.13 µM
- TGI (NCI-H522 lung): 4.06 µM
- TGI (OVCAR-3 ovarian): 0.528 µM
- TGI (OVCAR-4 ovarian): 3.2 µM
- TGI (OVCAR-5 ovarian): 3.54 µM
- TGI (OVCAR-8 ovarian): 2.95 µM
- TGI (RPMI-8226 leukemia): 5.62 µM
- TGI (RXF 393 renal): 11.6 µM
- TGI (SF-268 CNS): 4.52 µM
- TGI (SF-295 CNS): 3.06 µM
- TGI (SF-539 CNS): 3.4 µM
- TGI (SK-MEL-2 melanoma): 3.19 µM
- TGI (SK-MEL-28 melanoma): 3.67 µM
- TGI (SK-MEL-5 melanoma): 3.12 µM
- TGI (SK-OV-3 ovarian): 8.51 µM
- TGI (SN12C renal): 3.41 µM
- TGI (SNB-19 CNS): 7.65 µM
- TGI (SNB-75 CNS): 6.36 µM
- TGI (SNB-78 CNS): 5.46 µM
- TGI (SR leukemia): 6 µM
- TGI (SW-620 colon): 4.55 µM
- TGI (TK-10 renal): 24.1 µM
- TGI (U251 CNS): 3.86 µM
- TGI (UACC-257 melanoma): 2.93 µM
- TGI (UACC-62 melanoma): 3.44 µM
- TGI (UO-31 renal): 6.3 µM

Compound: CSc1nc(=Nc2ccccc2)sn1-c1ccccc1
- TGI (786-0 renal): 34.4 µM
- TGI (A498 renal): 38.7 µM
- TGI (A549 NSCLC): 44 µM
- TGI (ACHN renal): 56 µM
- TGI (CAKI-1 renal): 35.1 µM
- TGI (CCRF-CEM leukemia): 40 µM
- TGI (DMS 114 small cell lung): 16.1 µM
- TGI (DMS 273 small cell lung): 22.8 µM
- TGI (EKVX NSCLC): > 100 µM
- TGI (HCC-2998 colon): 38.1 µM
- TGI (HCT-116 colon): 32.5 µM
- TGI (HCT-15 colon): 30.4 µM
- TGI (HL-60(TB) leukemia): 22.6 µM
- TGI (HOP-62 NSCLC): 31.3 µM
- TGI (HT29 colon): 11.8 µM
- TGI (IGROV1 ovarian): 40 µM
- TGI (K-562 leukemia): 30.1 µM
- TGI (KM12 colon): 44.2 µM
- TGI (KM20L2 colon): 28.4 µM
- TGI (LOX IMVI melanoma): 32 µM
- TGI (M14 melanoma): 22.5 µM
- TGI (M19-MEL melanoma): 23 µM
- TGI (MALME-3M melanoma): 99.1 µM
- TGI (MOLT-4 leukemia): 96 µM
- TGI (NCI-H226 lung): 36.2 µM
- TGI (NCI-H23 lung): 36 µM
- TGI (NCI-H460 lung): 16.9 µM
- TGI (NCI-H522 lung): 13.2 µM
- TGI (OVCAR-3 ovarian): 38.5 µM
- TGI (OVCAR-4 ovarian): 23.6 µM
- TGI (OVCAR-5 ovarian): 48 µM
- TGI (OVCAR-8 ovarian): 46.3 µM
- TGI (RPMI-8226 leukemia): 40.5 µM
- TGI (RXF 393 renal): 31.3 µM
- TGI (SF-268 CNS): 54 µM
- TGI (SF-295 CNS): 49.2 µM
- TGI (SF-539 CNS): 36.9 µM
- TGI (SK-MEL-2 melanoma): 76.9 µM
- TGI (SK-MEL-28 melanoma): 30.2 µM
- TGI (SK-MEL-5 melanoma): 23.2 µM
- TGI (SK-OV-3 ovarian): 62.2 µM
- TGI (SN12C renal): 39 µM
- TGI (SNB-19 CNS): 56.7 µM
- TGI (SNB-75 CNS): 55.8 µM
- TGI (SNB-78 CNS): 47 µM
- TGI (SR leukemia): 81.1 µM
- TGI (SW-620 colon): 26.1 µM
- TGI (TK-10 renal): 60.5 µM
- TGI (U251 CNS): 33.4 µM
- TGI (UACC-257 melanoma): 43.9 µM
- TGI (UACC-62 melanoma): 18 µM
- TGI (UO-31 renal): 39.8 µM
